This note sets out measurements from ChEMBL document CHEMBL1150174, “Lyngbyaloside B, a new glycoside macrolide from a Palauan marine cyanobacterium, Lyngbya sp” (J Nat Prod, 2002).

For one assay, the system named is LoVo. Briefly: Cytotoxicity against human LoVo cells. It counts as functional, cell-based.
A further assay deals with KB. Nature of the assay: Cytotoxicity against human KB cells. In kind it is functional, cell-based.

The structures appear in SMILES notation. pIC50: −log10 of the molar value.

For the compound `CO[C@@H]1[C@@H](OC)[C@@H](O)[C@H](O[C@H]2C[C@@]3(O)CC(=O)O[C@](C)(CC/C=C/C=C/Br)C[C@@H](O)[C@H](C)CC[C@H](O3)[C@@H]2C)O[C@H]1C` [LYNGBYALOSIDE B], the pIC50 in the assay with LoVo was 4.82; with KB, 5.37.
